Patent publication US7888383B2, “Organic compounds” (Novartis AG, priority 2005, dated 2011)
pIC50, pKi: −log10 of the molar value.

How the values were obtained:
human CRTh2 = molecular target: T1, human CRTh2 (Homo sapiens, UniProt Q9Y5Y4); assay: CRTh2 [3H]-PGD2 binding assay (filtration protocol; called SPA binding assay); conditions: competition with [3H]-PGD2 (2.5 nM), CHO.K1-CRTh2 membranes
T1 construct: expressed in transfected cells; host or cells: CHO.K1 (Chinese Hamster Ovary) cells expressing human CRTh2; membrane preparation
T1 sequence (Q9Y5Y4 1-395): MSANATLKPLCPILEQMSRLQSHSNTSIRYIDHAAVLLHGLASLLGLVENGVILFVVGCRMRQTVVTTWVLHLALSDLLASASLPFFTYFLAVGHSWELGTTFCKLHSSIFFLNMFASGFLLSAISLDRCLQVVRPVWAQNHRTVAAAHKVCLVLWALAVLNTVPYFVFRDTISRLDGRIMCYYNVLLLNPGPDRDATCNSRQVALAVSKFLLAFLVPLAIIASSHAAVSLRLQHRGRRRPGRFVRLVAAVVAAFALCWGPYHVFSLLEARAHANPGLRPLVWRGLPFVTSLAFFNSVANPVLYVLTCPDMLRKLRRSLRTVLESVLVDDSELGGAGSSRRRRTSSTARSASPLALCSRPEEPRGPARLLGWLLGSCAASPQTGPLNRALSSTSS
Method: Filtration Binding Assay Protocol
The binding of CRTh2 modulators is determined using membranes prepared from human CRTh2-expressing Chinese Hamster Ovary cells (CHO.K1-CRTh2). To produce cell membranes CHO.K1-CRTh2 cells cultured in roller bottles are harvested using cell dissociation buffer (Invitrogen). The cells are pelleted by centrifugation (167 g, 5 min). The cell pellet is incubated in hypotonic buffer (15 mM Tris-OH, 2 mM MgCl2, 0.3 mM EDTA, 1 mM EGTA, 1× Complete™ tablet) at 4° C. for 30 min. At 4° C. cells are homogenized using a Polytron® (IKA Ultra Turrax T25) for 5 bursts of 1 second. The homogenate is centrifuged (Beckman Optima™ TL Ultracentrifuge, 48000 g, 30 min at 4° C.). The supernatant is discarded and the membrane pellet resuspended in homogenisation buffer (75 mM Tris-OH, 12.5 mM MgCl2, 0.3 mM EDTA, 1 mM EGTA, 250 mM Sucrose, 1× Complete™ tablet. Membrane preparations are aliquoted and stored at […]. The protein content is estimated using Bradford Protein Assay Dye (Bio Rad).
The binding of [^3H]-PGD2 (157 Ci/mmol) to CHO.K1-CRTh2 membranes is determined in the absence (total binding) and presence (non-specific binding) of unlabelled PGD2 (1 μM). Subtraction of the cpm (counts per minute) of [^3H]-PGD2 binding in presence of excess unlabelled PGD2 from that observed in the absence of excess unlabelled PGD2 is defined as specific binding. Active CRTh2 modulators are able to compete with [^3H]-PGD2 for binding to the CRTh2 receptor and are identified in a decrease in the number of cpm bound. […]
The plates are incubated at room temperature on a shaker for 1 hour, and then harvested (Tomtec Harvester 9600) onto GF/C filter plates using wash buffer (10 mM HEPES-KOH, pH 7.4). […] Plates are then counted using a Packard Top Count instrument, Plates are then read on the Packard Topcount with the 3H Scintillation program (1 min per well).
Ki (dissocation constant for the inhibition) values for the CRTh2 modulators are reported. Ki values are determined using Sigma Plot™ software, using the Cheng-Prussoff equation. […]

[1] = molecular target: T2, CRTh2 receptor in CHO.K1-CRTh2 cells (Homo sapiens, UniProt Q9Y5Y4); assay: CRTH2 cAMP functional assay; assay type: cell-based; conditions: inhibition of PGD2-mediated attenuation of forskolin-induced cAMP accumulation in CHO.K1-CRTh2 cells
T2 construct: expressed in transfected cells; host or cells: CHO.K1-CRTh2 cells (whole cells)
T2 sequence (Q9Y5Y4 1-395): T1 sequence (Q9Y5Y4 1-395)
Method: Ki (dissocation constant for the inhibition) values for the CRTh2 modulators are reported. Ki values are determined using Sigma Plot™ software, using the Cheng-Prussoff equation. Ki=IC50/1+[S]/Kd where S is the concentration of radioligand and Kd is the dissociation constant. CRTH2 cAMP Functional Assay Protocol
This assay is conducted in CHO.K1-CRTh2 cells. cAMP is generated in the cell by stimulating cells with 5 μM forskolin, an adenylate cyclase activator. PGD2 is added to activate the CRTh2 receptor which results in the attenuation of the forskolin-induced cAMP accumulation. Potential CRTh2 antagonists are tested for their ability to inhibit the PGD2-mediated attenuation of the forskolin-induced cAMP accumulation in CHO.K1-CRTh2 cells.
For each concentration value on the dose-response curve, test compounds are prepared in assay stimulation buffer (HBSS, 5 mM HEPES, 10 μM IBMX±0.1% human serum albumin) containing DMSO (3% vol/vol) and 5 μL/well is added to an assay plate (384 well white optiplate).
CHO.K1-CRTh2 cultured in tissue culture flasks are washed with PBS and harvested with dissociation buffer. Cells are washed with PBS and resuspended in stimulation buffer to a concentration of 0.4×10^6/mL and added to the assay plate (10 μL/well).
The assay plate is incubated at room temperature on a shaker for 15 minutes.
A mix of agonist (10 nM Prostaglandin D2) and 5 μM forskolin is prepared in assay stimulation buffer and added to the assay plate (5 μL/well).
In addition, a cAMP standard is serially diluted in assay stimulation buffer and added to separate empty wells on the assay plate (20 μL/well). The cAMP standard allows for the quantification of cAMP generated in CHO.K1-CRTH2 cells.
The assay plate is incubated at room temperature on a shaker for 60 minutes. […]
The assay plate is sealed with Topseal-S™ and incubated in the dark at room temperature on a shaker for 45 minutes. The plate is then counted using a Packard Fusion™ instrument. […]

| pKi (human CRTh2) | pIC50 [1] | Structure (SMILES) |
| --- | --- | --- |
| 7.28 | 7.48 | Cc1c(CC(=O)O)c2cc(F)ccc2n1Cc1ccc(S(=O)(=O)N(C)C2CCCCC2)cc1 [Example 4, {1-[4-(Cyclohexyl-methyl-sulfamoyl)-benzyl]-5-fluoro-2-methyl-1H-indol-3-yl}-acetic acid] |
| 7.44 | 7.00 | Cc1c(CC(=O)O)c2cc(F)ccc2n1Cc1ccc(S(=O)(=O)N2CCCC2)cc1 [Example 5, {5-Fluoro-2-methyl-1-[4-(pyrrolidine-1-sulfonyl)-benzyl]-1H-indol-3-yl}-acetic acid] |
| 8.10 | 7.14 | Cc1c(CC(=O)O)c2cc(F)ccc2n1Cc1ccc(S(C)(=O)=O)cc1C(F)(F)F [Example 2, [5-fluoro-(4-methanesulfonyl-2-trifluoromethyl-benzyl)-2-methyl-1H-indol-3-yl]-acetic acid] |
